Experimental data as given in the supplement of paper PMC8617591.

Experiments:
[1] = tested on: Mycobacterium tuberculosis Erdman (autoluminescent); experiment: total FIC50 (Loewe) at 50% inhibition, three-drug combination (log2); higher = more antagonistic
Procedure: (§1)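 DiaMOND equipotent three-drug combination dose responses (10 doses, 1.5- or 2-fold spacing, centred on IC90) against autoluminescent M. tuberculosis Erdman in 8 in vitro models. Read-out is OD600, or luminescence for the intracellular and dormancy models, normalised to untreated wells. Hill-fit Einf, AUC25 and GRinf are potency metrics; FIC50 and FIC90 are total Loewe fractional inhibitory concentrations as log2 (negative = synergy).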

[2] = tested on: Mycobacterium tuberculosis Erdman (autoluminescent); experiment: total FIC90 (Loewe) at 90% inhibition, three-drug combination (log2); higher = more antagonistic
Procedure: as §1

[3] = tested on: Mycobacterium tuberculosis Erdman (autoluminescent); experiment: Einf, fitted maximum growth inhibition of three-drug combination (fraction); higher = stronger maximal inhibition
Procedure: as §1

[4] = tested on: Mycobacterium tuberculosis Erdman (autoluminescent); experiment: AUC25, normalised area under dose response up to IC25 (three-drug combination) (fraction (0-1)); higher = more potent at low dose
Procedure: as §1

[5] = tested on: Mycobacterium tuberculosis Erdman (autoluminescent); experiment: GRinf, maximum normalised growth rate inhibition (three-drug combination) (unitless (-1 to 1)); higher = less effect (negative = killing)
Procedure: as §1

CC(C)/N=c1\cc2n(-c3ccc(Cl)cc3)c3ccccc3nc-2cc1Nc1ccc(Cl)cc1 [clofazimine] + NNC(=O)c1ccncc1 [isoniazid] + O=[N+]([O-])c1cn2c(n1)OC[C@@H](OCc1ccc(OC(F)(F)F)cc1)C2 [pretomanid]
Details | AUC25, [4] | Einf, [3] | GRinf, [5] | total FIC50, [1] | total FIC90, [2]
in vitro model: acidic pH 5.7, time point: constant (~7 days, model-specific) | 0.0904 | 0.772 | -0.0866 | -0.103 | –
in vitro model: acidic pH 5.7, time point: terminal (~4-5 doublings, model-specific) | 0.0916 | 0.963 | -0.274 | 0.278 | 0.567
in vitro model: intracellular J774, time point: constant = terminal | – | 0.976 | -0.35 | – | 0.28

Details | AUC25, [4] | Einf, [3] | GRinf, [5] | total FIC50, [1] | total FIC90, [2]
in vitro model: butyrate, time point: constant (~7 days, model-specific) | 0.106 | 0.965 | -0.205 | 0.629 | 1.4
in vitro model: butyrate, time point: terminal (~4-5 doublings, model-specific) | 0.0874 | 0.989 | -0.14 | 0.581 | 1.02
in vitro model: cholesterol 0.05 mM, time point: constant (~7 days, model-specific) | 0.119 | 0.713 | -0.0879 | 0.824 | –
in vitro model: cholesterol 0.05 mM, time point: terminal (~4-5 doublings, model-specific) | 0.0944 | 0.912 | -0.156 | 7.01 | 0.912
in vitro model: cholesterol-high 0.2 mM, time point: constant (~7 days, model-specific) | 0.102 | 0.971 | -0.31 | 0.301 | –
in vitro model: cholesterol-high 0.2 mM, time point: terminal (~4-5 doublings, model-specific) | 0.0894 | 1 | -0.709 | 0.306 | 0.374
in vitro model: dormancy (butyrate + nitrate, low O2), time point: constant (~7 days, model-specific) | 0.0958 | 0.93 | 0.217 | -0.236 | -0.894
in vitro model: dormancy (butyrate + nitrate, low O2), time point: terminal (~4-5 doublings, model-specific) | 0.0744 | 0.987 | -0.177 | -0.374 | -0.0746
in vitro model: standard 7H9 glycerol, time point: constant = terminal | 0.116 | 0.949 | -0.229 | 0.139 | 0.594
in vitro model: valerate, time point: constant (~7 days, model-specific) | 0.15 | 0.918 | -0.199 | 0.901 | 2.23
in vitro model: valerate, time point: terminal (~4-5 doublings, model-specific) | 0.0945 | 0.942 | -0.0153 | 0.511 | 2.01

CC[C@@H](CO)NCCN[C@@H](CC)CO [ethambutol] + COc1c(N2C[C@@H]3CCCN[C@@H]3C2)c(F)cc2c(=O)c(C(=O)O)cn(C3CC3)c12 [moxifloxacin] + NC(=O)c1cnccn1 [pyrazinamide]
Details | AUC25, [4] | Einf, [3] | GRinf, [5] | total FIC50, [1] | total FIC90, [2]
in vitro model: acidic pH 5.7, time point: constant (~7 days, model-specific) | 0.106 | 0.781 | -0.213 | 0.429 | –
in vitro model: acidic pH 5.7, time point: terminal (~4-5 doublings, model-specific) | 0.0713 | 0.959 | -0.294 | 0.98 | 0.0827
in vitro model: intracellular J774, time point: constant = terminal | – | 0.98 | -0.497 | – | -0.596

Details | AUC25, [4] | Einf, [3] | GRinf, [5] | total FIC50, [1] | total FIC90, [2]
in vitro model: butyrate, time point: constant (~7 days, model-specific) | 0.108 | 0.926 | 0.001 | 0.345 | –
in vitro model: butyrate, time point: terminal (~4-5 doublings, model-specific) | 0.0814 | 0.967 | -0.00667 | 0.477 | 0.431
in vitro model: cholesterol 0.05 mM, time point: constant (~7 days, model-specific) | 0.12 | 0.683 | -0.365 | – | –
in vitro model: cholesterol 0.05 mM, time point: terminal (~4-5 doublings, model-specific) | 0.135 | 0.8 | -0.21 | 0.703 | –
in vitro model: cholesterol-high 0.2 mM, time point: constant (~7 days, model-specific) | 0.0703 | 0.962 | -0.373 | 1.02 | –
in vitro model: cholesterol-high 0.2 mM, time point: terminal (~4-5 doublings, model-specific) | 0.0603 | 1 | -0.587 | 1.29 | 1.24
in vitro model: dormancy (butyrate + nitrate, low O2), time point: constant (~7 days, model-specific) | 0.0861 | 0.816 | 0.46 | -0.23 | –
in vitro model: dormancy (butyrate + nitrate, low O2), time point: terminal (~4-5 doublings, model-specific) | 0.0923 | 0.979 | -0.107 | 0.189 | -0.144
in vitro model: standard 7H9 glycerol, time point: constant = terminal | 0.0574 | 0.966 | -0.145 | – | –
in vitro model: valerate, time point: constant (~7 days, model-specific) | 0.0872 | 0.884 | -0.169 | 0.599 | –
in vitro model: valerate, time point: terminal (~4-5 doublings, model-specific) | 0.0506 | 0.945 | -0.037 | 0.696 | -0.119

COc1c(N2C[C@@H]3CCCN[C@@H]3C2)c(F)cc2c(=O)c(C(=O)O)cn(C3CC3)c12 [moxifloxacin] + O=[N+]([O-])c1cn2c(n1)OC[C@@H](OCc1ccc(OC(F)(F)F)cc1)C2 [pretomanid] + CO[C@H]1/C=C/O[C@@]2(C)Oc3c(C)c(O)c4c(O)c(c(/C=N/N5CCN(C)CC5)c(O)c4c3C2=O)NC(=O)/C(C)=C\C=C\[C@H](C)[C@H](O)[C@@H](C)[C@@H](O)[C@@H](C)[C@H](OC(C)=O)[C@@H]1C [rifampicin]
Details | AUC25, [4] | Einf, [3] | GRinf, [5] | total FIC50, [1] | total FIC90, [2]
in vitro model: acidic pH 5.7, time point: constant (~7 days, model-specific) | 0.0717 | 0.875 | -0.146 | 0.484 | –
in vitro model: acidic pH 5.7, time point: terminal (~4-5 doublings, model-specific) | 0.0448 | 0.974 | -0.163 | 0.652 | 0.221
in vitro model: intracellular J774, time point: constant = terminal | – | 0.979 | -0.304 | – | 0.0806

Details | AUC25, [4] | Einf, [3] | GRinf, [5] | total FIC50, [1] | total FIC90, [2]
in vitro model: butyrate, time point: constant (~7 days, model-specific) | 0.0923 | 0.912 | 0.0241 | 0.355 | 0.227
in vitro model: butyrate, time point: terminal (~4-5 doublings, model-specific) | 0.085 | 0.962 | 0.00652 | 0.25 | 0.434
in vitro model: cholesterol 0.05 mM, time point: constant (~7 days, model-specific) | 0.0931 | 0.606 | -0.000182 | 0.67 | –
in vitro model: cholesterol 0.05 mM, time point: terminal (~4-5 doublings, model-specific) | 0.0743 | 0.858 | -0.0705 | 1.14 | -0.636
in vitro model: cholesterol-high 0.2 mM, time point: constant (~7 days, model-specific) | 0.0701 | 0.849 | -0.468 | 0.869 | 1.29
in vitro model: cholesterol-high 0.2 mM, time point: terminal (~4-5 doublings, model-specific) | 0.0765 | 0.996 | -0.801 | 0.954 | 0.992
in vitro model: dormancy (butyrate + nitrate, low O2), time point: constant (~7 days, model-specific) | 0.0676 | 0.883 | 0.23 | 0.689 | 0.327
in vitro model: dormancy (butyrate + nitrate, low O2), time point: terminal (~4-5 doublings, model-specific) | 0.0531 | 0.965 | -0.0626 | 0.662 | 0.913
in vitro model: standard 7H9 glycerol, time point: constant = terminal | 0.0625 | 0.883 | 0.162 | 0.125 | –
in vitro model: valerate, time point: constant (~7 days, model-specific) | 0.0778 | 0.847 | 0.0569 | 0.325 | –
in vitro model: valerate, time point: terminal (~4-5 doublings, model-specific) | 0.0459 | 0.924 | 0.0455 | 0.877 | 0.41
